# Test results as given in patent US20130012491A1, “PYRIMIDINE DERIVATIVES FOR USE AS SPHINGOSINE 1-PHOSPHATE 1 (S1P1) RECEPTOR AGONISTS” (GLAXO GROUP LIMITED, priority 2010, published 2013).
# Structures can show the parent of a compound that is named as a salt.
# System: animal models of immune disorders
# Assay: not given
# Conditions: cited from earlier work
row,SMILES,disease modulating activity
1,CCCCCCCCc1ccc(CCC(N)(CO)CO)cc1 [FTY720],disease modulating activity

# Molecular target: T1, S1P3 (human Endothelial Differentiation G-protein Coupled Receptor 3 (EDG3)) (Homo sapiens, UniProt Q99500)
# T1 construct: expressed in transfected cells; host or cells: GeneBLAzer EDG3-Ga15-NFAT-bla HEK 293T cells
# T1 sequence (Q99500 whole entry): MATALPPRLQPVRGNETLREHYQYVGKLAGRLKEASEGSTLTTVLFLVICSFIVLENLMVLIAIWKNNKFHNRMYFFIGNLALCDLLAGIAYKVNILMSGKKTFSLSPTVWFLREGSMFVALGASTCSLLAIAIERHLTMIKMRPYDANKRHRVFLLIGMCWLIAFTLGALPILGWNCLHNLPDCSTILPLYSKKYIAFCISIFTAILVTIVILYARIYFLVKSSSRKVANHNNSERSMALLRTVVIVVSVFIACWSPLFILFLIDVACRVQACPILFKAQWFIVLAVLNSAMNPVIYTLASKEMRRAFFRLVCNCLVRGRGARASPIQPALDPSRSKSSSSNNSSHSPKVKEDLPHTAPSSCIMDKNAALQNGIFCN
# Assay: S1P3 GeneBlazer assay
# Assay type: cell-based
# Conditions: agonist, EDG3-Ga15-NFAT-bla HEK 293T cells, beta-lactamase FRET readout
# Experimental: GeneBLAzer EDG3-Ga15-NFAT-bla HEK 293T cells (contain the human Endothelial Differentiation G-protein Coupled Receptor 3 (EDG3) and a beta-lactamase reporter gene under control of a […] response element and a promiscuous G Protein, Ga15, stably integrated into the GeneBLAzer Ga15-NFAT-bla HEK 293T cell line) were harvested from growth medium and suspended in assay medium (90% DMEM, 10% Charcoal-stripped FBS, 0.1 mM NEAA, 25 mM HEPES (pH 7.3), 100 U/ml penicillin, 100 μg/ml streptomycin) at a density of ˜200,000 cells/ml.
# All test compounds were dissolved in DMSO at a concentration of 10 mM and were prepared in 100% DMSO to provide 10 point dose response curves. Test compounds prepared by Bravo (Velocity11) were added to wells in columns 2-11 and 13-22; DMSO was added to wells in columns 12 and 23 as unstimulated controls and assay medium was added to wells in columns 1 and 24 as cell-free controls. An S1P3 agonist was added to wells in row 2, columns 2-11 as stimulated controls and test compounds were added to wells in row 2, columns 13-22 and rows 3-15, columns 2-11/13-22 (row 1 and 16 were empty and not used). Compounds in solution were added to the assay plate (Greiner 781090) using an Echo (Labcyte) dose-response program (50 nl/well). The unstimulated and cell-free controls were loaded with 50 nl/well pure DMSO to ensure that the DMSO concentration was constant across the plate for all assays.
# 50 μl of the cell suspension was added to each well in columns 2-23 of the plate (˜10,000 cells per well). 50 μl of assay medium was added to each well in the cell-free controls (columns 1 and 24). The cells were incubated overnight at 37° C./5% CO2.
# 10 μl of 6× substrate mixture (LiveBLAzer™-FRET B/G substrate (CCF4-AM) Cat # K1096 from Invitrogen, Inc.) was added to each well using Bravo and the plates incubated at room temperature for 2 h in the dark. The plate was finally read on EnVision using one excitation channel (409 nm) and two emission channels (460 nm and 530 nm).
# The blue/green emission ratio (460 nm/530 nm) was calculated for each well, by dividing the background-subtracted Blue emission values by the background-subtracted Green emission values. The dose response curve is based on sigmoidal dose-response model. All ratio data was normalized based upon the maximum emission ratio of positive control and minimum emission ratio of negative control (DMSO) on each plate. The intrinsic activity (IA) of each compound would be the normalized percentage of its maximum response after curve fitting.
row,SMILES,EC50
1,"CCc1c(CCN2CC(C(=O)O)C2)cccc1-c1cnc(-c2ccc(OC(C)C)c(Cl)c2)nc1 [Example 28, N-{2-[3-(2-{3-chloro-4-[(1-methylethyl)oxy]phenyl}-5-pyrimidinyl)-2-ethylphenyl]ethyl}-3-azetidinecarboxylic acid]",≤ 2 µM
2,"CCc1c(CCN2CCC(C(=O)O)C2)cccc1-c1cnc(-c2ccc(OC(C)C)c(Cl)c2)nc1 (stereo not shown) [Example 29, 1-{2-[3-(2-{3-chloro-4-[(1-methylethyl)oxy]phenyl}-5-pyrimidinyl)-2-ethylphenyl]ethyl}-3-pyrrolidinecarboxylic acid]",≤ 2 µM
3,"CCc1c(CCN(C)CC(=O)O)cccc1-c1cnc(-c2ccc(OC(C)C)c(Cl)c2)nc1 [Example 27, N-{2-[3-(2-{3-chloro-4-[(1-methylethyl)oxy]phenyl}-5-pyrimidinyl)-2-ethylphenyl]ethyl}-N-methylglycine]",≤ 10 µM
4,"CCc1c(CNCCC(=O)O)cccc1-c1cnc(-c2ccc(OC(C)C)c(C(F)(F)F)c2)nc1 [Example 10, N-[(2-ethyl-3-{2-[4-[(1-methylethyl)oxy]-3-(trifluoromethyl)phenyl]-5-pyrimidinyl}phenyl)methyl]-b-alanine]",≤ 2 µM
5,"CCc1c(-c2cnc(-c3ccc(OC(C)C)c(Cl)c3)nc2)cccc1C1CCN(CCC(=O)O)CC1 [Example 15, 3-{4-[3-(2-{3-chloro-4-[(1-methylethyl)oxy]phenyl}-5-pyrimidinyl)-2-ethylphenyl]-1-piperidinyl}propanoic acid trifluoroacetate]",≤ 10 µM
6,"CCc1c(CN2CC(C(=O)O)C2)cccc1-c1cnc(-c2ccc(OC(C)C)c(C(F)(F)F)c2)nc1 [Example 11, 1-[(2-ethyl-3-{2-[4-[(1-methylethyl)oxy]-3-(trifluoromethyl)phenyl]-5-pyrimidinyl}phenyl)methyl]-3-azetidinecarboxylic acid]",≤ 10 µM
7,"CCc1c(CN2CCC(C(=O)O)CC2)cccc1-c1cnc(-c2ccc(OC(C)C)c(C(F)(F)F)c2)nc1 [Example 13, 1-[(2-ethyl-3-{2-[4-[(1-methylethyl)oxy]-3-(trifluoromethyl)phenyl]-5-pyrimidinyl}phenyl)methyl]-4-piperidinecarboxylic acid]",≤ 10 µM

# The remaining lines, values ahead:
row,EC50,SMILES
1,≤ 2 µM,"CCc1c(CCN2CCC(C(=O)O)CC2)cccc1-c1cnc(-c2ccc(CC(C)C)c(C#N)c2)nc1 [Example 40, 1-[2-(3-{2-[3-cyano-4-(2-methylpropyl)phenyl]-5-pyrimidinyl}-2-ethylphenyl)ethyl]-4-piperidinecarboxylic acid]"
2,≤ 10 µM,"CCc1c(CCN2CCCC(C(=O)O)C2)cccc1-c1cnc(-c2ccc(CC(C)C)c(C#N)c2)nc1 (stereo not shown) [Example 38, 1-[2-(3-{2-[3-cyano-4-(2-methylpropyl)phenyl]-5-pyrimidinyl}-2-ethylphenyl)ethyl]-3-piperidinecarboxylic acid]"
3,≤ 10 µM,"CCc1c(CCN(C)CCC(=O)O)cccc1-c1cnc(-c2ccc(CC(C)C)c(C#N)c2)nc1 [Example 35, N-[2-(3-{2-[3-cyano-4-(2-methylpropyl)phenyl]-5-pyrimidinyl}-2-ethylphenyl)ethyl]-N-methyl-b-alanine]"
4,≤ 10 µM,"CCc1c(CCN(C)CC(=O)O)cccc1-c1cnc(-c2ccc(CC(C)C)c(C#N)c2)nc1 [Example 34, N-[2-(3-{2-[3-cyano-4-(2-methylpropyl)phenyl]-5-pyrimidinyl}-2-ethylphenyl)ethyl]-N-methylglycine trifluoroacetate]"
5,≤ 2 µM,"CCc1c(CCN2CCC(C(=O)O)CC2)cccc1-c1cnc(-c2ccc(OC(C)C)c(Cl)c2)nc1 [Example 33, 1-{2-[3-(2-{3-chloro-4-[(1-methylethyl)oxy]phenyl}-5-pyrimidinyl)-2-ethylphenyl]ethyl}-4-piperidinecarboxylic acid]"
6,≤ 10 µM,"CCc1c(CCN2CCCC(C(=O)O)C2)cccc1-c1cnc(-c2ccc(OC(C)C)c(Cl)c2)nc1 (stereo not shown) [Example 31, 1-{2-[3-(2-{3-chloro-4-[(1-methylethyl)oxy]phenyl}-5-pyrimidinyl)-2-ethylphenyl]ethyl}-3-piperidinecarboxylic acid]"
7,≤ 10 µM,"CCc1c(CCN2CCC(C(=O)O)C2)cccc1-c1cnc(-c2ccc(CC(C)C)c(C#N)c2)nc1 (stereo not shown) [Example 37, 1-[2-(3-{2-[3-cyano-4-(2-methylpropyl)phenyl]-5-pyrimidinyl}-2-ethylphenyl)ethyl]-3-pyrrolidinecarboxylic acid]"
8,≤ 10 µM,"CCc1c(CCN2CCC[C@H](C(=O)O)C2)cccc1-c1cnc(-c2ccc(OC(C)C)c(Cl)c2)nc1 [Example 32, (3S)-1-{2-[3-(2-{3-chloro-4-[(1-methylethyl)oxy]phenyl}-5-pyrimidinyl)-2-ethylphenyl]ethyl}-3-piperidinecarboxylic acid]"
9,≤ 10 µM,"CCc1c(CCN2CCC[C@H](C(=O)O)C2)cccc1-c1cnc(-c2ccc(CC(C)C)c(C#N)c2)nc1 [Example 39, (3S)-1-[2-(3-{2-[3-cyano-4-(2-methylpropyl)phenyl]-5-pyrimidinyl}-2-ethylphenyl)ethyl]-3-piperidinecarboxylic acid]"
10,≤ 10 µM,"CCc1c(CCN2CC(C(=O)O)C2)cccc1-c1cnc(-c2ccc(CC(C)C)c(C#N)c2)nc1 [Example 36, 1-[2-(3-{2-{3-cyano-4-(2-methylpropyl)phenyl}-5-pyrimidinyl}-2-ethylphenyl)ethyl]-3-azetidinecarboxylic acid]"
11,≤ 2 µM,"CCc1c(CCN2CC[C@H](C(=O)O)C2)cccc1-c1cnc(-c2ccc(OC(C)C)c(Cl)c2)nc1 [Example 30, (3S)-1-{2-[3-(2-{3-chloro-4-[(1-methylethyl)oxy]phenyl}-5-pyrimidinyl)-2-ethylphenyl]ethyl}-3-pyrrolidinecarboxylic acid]"

# System: circulating lymphocytes
# Assay: not given
# Conditions: animals and man; cited from earlier work
row,SMILES,effect on circulating lymphocytes
1,CCCCCCCCc1ccc(CCC(N)(CO)CO)cc1 [FTY720],reduce circulating lymphocytes

# System: S1P3 knock-out animals
# Assay: not given
# Conditions: unlike wild type mice; cited from earlier work
row,SMILES,bradycardia
1,CCCCCCCCc1ccc(CCC(N)(CO)CO)cc1 [FTY720],do not demonstrate bradycardia

# System: not given
# Assay: not given
# Conditions: clinical studies, first 24 hours of treatment; cited from earlier work
row,SMILES,bradycardia
1,CCCCCCCCc1ccc(CCC(N)(CO)CO)cc1 [FTY720],results in bradycardia
